Measured values published in US20240343699A1, “DERIVATIVES OF SUBSTITUTED MORPHOLINES AND USES THEREOF” (Supernus Pharmaceuticals, Inc., priority 2023, published 2024).
Like-named read-outs stand apart in the source and are kept apart here.

Key:
locomotor activity = test: SmartCage locomotor activity; details: 24 hr
Protocol: Animals. […] Upon arrival at the facility, animals were group-housed (5/cage) with access to food and water ad libitum. Animals were maintained on a 12/12-hour light/dark cycle in a temperature—(22±2° C.) and humidity-(approx.35-50%) controlled room. Animals were numbered consecutively by tail ID marker in each home cage.
Locomotor Activity Monitoring. […] After the first day, animals were administered one of four doses (PO) of test article and monitored for the next 24 hours. The animal's activity during the monitored hours was quantified using the parameters of distance travelled, time active, and rearing activity.
SmartCage. After a washout period of at least 24 hours following a TST evaluation during which the animals were group-housed (5/cage), individual mice were placed into a freshly prepared home cage and their activity recorded simultaneously using the SmartCage™ system and a video camera placed above the SmartCage™ system.
Active wakefulness was defined as actively moving, rearing, and exploratory behaviors. […] Likewise, distance traveled in centimeters was obtained from the lower horizontal IR and calculated taking into account the animal's path. […] The calculated distance traveled (at any given time period, called ‘block’, or ‘total measuring period’) and speed were the two main parameters for locomotor activity. […]

[1] = type: in vitro ADME; details: Rat plasma, wet ice bath
Protocol: A study was conducted to examine the bioanalytical data for compounds in Rat plasma. […] Frozen Sprague Dawley rat (male pooled) and human (mixed gender) plasma was utilized for the study. Test compounds were dissolved in dimethyl sulfoxide (DMSO) to make a 10 mM stock solution. A working solution was made with MeOH/water. […]

[2] = Plasma stability in rat plasma; type: in vitro ADME, Sprague Dawley rat; details: final concentration 2 μM
Protocol: A study was conducted to examine the plasma stability. Test Compounds: COMPOUND D, COMPOUND E, and Viloxazine. Positive controls: Enalapril and Propantheline.
A study was conducted to examine the bioanalytical data for compounds in Rat plasma. Frozen Sprague Dawley rat (male pooled) and human (mixed gender) plasma was utilized for the study. Test compounds were dissolved in dimethyl sulfoxide (DMSO) to make a 10 mM stock solution. A working solution was made with MeOH/water. COMPOUND E ([…]) was incubated with plasma in duplicates at 37° C. in a water bath. Sampling timepoints included 0, 5, 15, 30, and 60 min Enalapril and propantheline were used as positive control for rat and human plasma at 2 μM

[3] = Preclinical PK: plasma viloxazine after PO dosing of COMPOUND D or COMPOUND E; type: in vivo, mouse; details: individual mice
Protocol: A study was conducted for preclinical PK performance of COMPOUND D and COMPOUND E. Please see below for details on the study, with fasted mice orally dosed with COMPOUND D or COMPOUND E.
Relevant data are summarized in below tables (ND=Not determined (Parameters not determined due to inadequately defined terminal elimination phase. BQL=Below the lower limit of quantitation (LLOQ). If the adjusted rsq (linear regression coefficient of the concentration value on the terminal phase) is less than 0.9, T1/2 might not be accurately estimated. If the % AUCExtra>20%, AUC0-inf, Cl, MRT0-inf and Vdss might not be accurately estimated. If the % AUMCExtra>20%, MRT0-inf and Vdss might not be accurately estimated. a: Bioavailability (%) was calculated using AUC0-inf (% AUCExtra<20%) or AUC0-last (% AUCExtra>20%) with nominal dose)

[4] = type: in vitro ADME, mouse; details: mice Blood, wet ice bath, 5% Paraoxon ethyl as stabilizer; for % stability: 0.5 hr
[5] = 5% Paraoxon ethyl as stabilizer, HQC, 0 hr sample
[6] = 5% Paraoxon ethyl as stabilizer, HQC, 1 hr
[7] = 5% Paraoxon ethyl as stabilizer, HQC, 1 hr sample
[8] = 5% Paraoxon ethyl as stabilizer, HQC, 2 hr
[9] = 5% Paraoxon ethyl as stabilizer, HQC, 2 hr sample
[10] = 5% Paraoxon ethyl as stabilizer, LQC, 0 hr sample
[11] = 5% Paraoxon ethyl as stabilizer, LQC, 1 hr
[12] = 5% Paraoxon ethyl as stabilizer, LQC, 1 hr sample
[13] = 5% Paraoxon ethyl as stabilizer, LQC, 2 hr
[14] = 5% Paraoxon ethyl as stabilizer, LQC, 2 hr sample
[15] = No stabilizer, HQC, 0 hr sample
[16] = No stabilizer, HQC, 1 hr sample
[17] = No stabilizer, HQC, 2 hr sample
[18] = No stabilizer, LQC, 0 hr sample
[19] = No stabilizer, LQC, 1 hr sample
[20] = No stabilizer, LQC, 2 hr sample

Compound | Mean peak area ratio [1, 5] | % stability [1, 6] [%] | Mean peak area ratio [1, 7] | % stability [1, 8] [%] | Mean peak area ratio [1, 9] | Mean peak area ratio [1, 10] | % stability [1, 11] [%] | Mean peak area ratio [1, 12] | % stability [1, 13] [%] | Mean peak area ratio [1, 14] | Mean peak area ratio [1, 15] | % stability ([1]; No stabilizer, HQC, 1 hr) [%] | Mean peak area ratio [1, 16] | % stability ([1]; No stabilizer, HQC, 2 hr) [%] | Mean peak area ratio [1, 17] | Mean peak area ratio [1, 18] | % stability ([1]; No stabilizer, LQC, 1 hr) [%] | Mean peak area ratio [1, 19] | % stability ([1]; No stabilizer, LQC, 2 hr) [%] | Mean peak area ratio [1, 20] | other results
CCOc1ccccc1OC[C@@H]1CN(C(=O)OC(C)OC(=O)[C@@H](N)C(C)C)CCO1 (stereo partly drawn) [COMPOUND A] | – | – | – | – | – | – | – | – | – | – | – | – | – | – | – | – | – | – | – | – | home cage activity (activity, rearing, distance, velocity) (locomotor activity; COMPOUND A 10, 30 and 90 mg/kg PO): no significant effect on daytime or nighttime activity measurements
CCOc1ccccc1OC[C@@H]1CN(C(=O)OC(OC(=O)[C@H](N)C(C)C)C(C)C)CCO1 (stereo partly drawn) [COMPOUND C] | – | – | – | – | – | – | – | – | – | – | – | – | – | – | – | – | – | – | – | – | home cage activity (activity, rearing, distance, velocity) (locomotor activity; COMPOUND C 10, 30, 60 and 90 mg/kg PO): no significant effect on daytime or nighttime activity measurements
CCOc1ccccc1OCC1CN(C(=O)OC(C)OC(=O)[C@H](N)C(C)C)CCO1 (stereo partly drawn) [COMPOUND D] | 1.83 | 58.7 | 1.07 | 26.0 | 0.47 | 0.00608 | 57.3 | 0.00348 | 36.9 | 0.00224 | 0.67 | 31.2 | 0.21 | 8.0 | 0.05 | 0.00292 | 30.1 | 0.00088 | 6.8 | 0.0002 | % Remaining at 60 min (Mean) [2]: 0.0%; Plasma concentration of Viloxazine ([3]; COMPOUND D PO 19.74 mg/kg, 8.00 h): BQL; Plasma concentration of Viloxazine ([3]; COMPOUND D PO 19.74 mg/kg, 24.0 h): BQL; Mean peak area ([4]; HQC, 0 hr sample): 1.315; % stability ([4]; HQC): 52%; Mean peak area ([4]; HQC, 0.5 hr sample): 0.682; Mean peak area ([4]; LQC, 0 hr sample): 0.00479; % stability ([4]; LQC): 54.7%; Mean peak area ([4]; LQC, 0.5 hr sample): 0.00262
CCOc1ccccc1OCC1CN(C(=O)OC(OC(=O)[C@@H](N)C(C)C)C(C)C)CCO1 (stereo partly drawn) [COMPOUND E] | 3.38 | 79.5 | 2.69 | 62.9 | 2.13 | 0.00882 | 68.3 | 0.00602 | 63.7 | 0.00562 | 1.58 | 20.9 | 0.33 | 2.5 | 0.04 | 0.00472 | 28.2 | 0.00133 | 5.3 | 0.00025 | % Remaining at 60 min (Mean) [2]: 0.0%; Plasma concentration of Viloxazine ([3]; COMPOUND E PO 20.99 mg/kg, 8.00 h): BQL; Plasma concentration of Viloxazine ([3]; COMPOUND E PO 20.99 mg/kg, 24.0 h): BQL; Mean peak area ([4]; HQC, 0 hr sample): 2.903; % stability ([4]; HQC): 103%; Mean peak area ([4]; HQC, 0.5 hr sample): 3.00; Mean peak area ([4]; LQC, 0 hr sample): 0.00933; % stability ([4]; LQC): 86.3%; Mean peak area ([4]; LQC, 0.5 hr sample): 0.00806
